Laboratory results published in US8710065B2, “Tricyclic inhibitors of kinases” (AbbVie Inc., priority 2011, dated 2014).

target: T1, GST-tagged-Wee1 kinase (Homo sapiens, UniProt P30291); assay: Wee1 time-resolved fluorescence equilibrium binding assay (displacement of Oregon Green-labeled ATP-competitive kinase probe); details: read-out: Wee-1 inhibition (Ki)
T1 construct: purchased Carnabio (Carna Biosciences) 05-177
Method: Wee1 kinase was assayed using a time-resolved fluorescence equilibrium binding assay monitoring displacement of a rapidly reversible Oregon Green-labeled ATP-competitive kinase probe (N-(2-(2-(2-(4-(4-(5-chloro-4-(2-(1-hydroxycyclobutyl)thiazol-5-yl)-1H-pyrrolo[2,3-b]pyridin-2-yl)phenyl)piperazin-1-yl)ethoxy)ethoxy)ethyl)-2′,7′-difluoro-3′,6′-dihydroxy-3-oxo-3H-spiro[isobenzofuran-1,9′-xanthene]-5-carboxamide) by competitive Wee1 inhibitors.
Table 1 depicts enzyme inhibition data (Ki) for exemplary compounds.

T1 sequence (P30291 whole entry): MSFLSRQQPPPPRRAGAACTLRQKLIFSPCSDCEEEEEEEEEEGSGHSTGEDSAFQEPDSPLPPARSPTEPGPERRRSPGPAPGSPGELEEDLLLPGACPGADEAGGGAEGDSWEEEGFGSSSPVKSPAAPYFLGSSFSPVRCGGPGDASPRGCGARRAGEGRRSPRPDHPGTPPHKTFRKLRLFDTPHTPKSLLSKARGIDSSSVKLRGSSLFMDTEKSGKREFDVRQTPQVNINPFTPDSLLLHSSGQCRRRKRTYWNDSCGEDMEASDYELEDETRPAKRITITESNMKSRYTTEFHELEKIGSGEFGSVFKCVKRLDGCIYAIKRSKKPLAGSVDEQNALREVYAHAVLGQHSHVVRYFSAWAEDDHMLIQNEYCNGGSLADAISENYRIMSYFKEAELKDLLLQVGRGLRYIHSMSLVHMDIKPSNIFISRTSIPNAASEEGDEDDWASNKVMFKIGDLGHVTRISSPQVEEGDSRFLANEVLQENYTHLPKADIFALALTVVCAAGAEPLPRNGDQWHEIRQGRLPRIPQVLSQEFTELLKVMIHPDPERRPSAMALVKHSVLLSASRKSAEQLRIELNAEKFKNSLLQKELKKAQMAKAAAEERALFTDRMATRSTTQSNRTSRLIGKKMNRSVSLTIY

| SMILES | Ki |
| --- | --- |
| O=c1c2cnc(Nc3ccccc3)nc2n2ccnc2n1-c1cccc(O)c1 [Example 68, 6-(3-hydroxyphenyl)-2-(phenylamino)imidazo[1,2-a]pyrimido[5,4-e]pyrimidin-5(6H)-one] | 10 to 100 nM |
| O=c1c2cnc(Nc3ccc(C4CCCCN4)cc3)nc2n2ccnc2n1-c1ccccc1Cl (centres unmarked) [Example 70, 6-(2-chlorophenyl)-2-{[4-(piperidin-2-yl)phenyl]amino}imidazo[1,2-a]pyrimido[5,4-e]pyrimidin-5(6H)-one] | < 10 nM |
| CN1Cc2cc(Nc3ncc4c(=O)n(-c5c(Cl)cccc5Cl)c5nccn5c4n3)ccc2C2(CC2)C1 [Example 73, 6-(2,6-dichlorophenyl)-2-[(2′-methyl-2′,3′-dihydro-1′H-spiro[cyclopropane-1,4′-isoquinolin]-7′-yl)amino]imidazo[1,2-a]pyrimido[5,4-e]pyrimidin-5(6H)-one] | < 10 nM |
| Cc1cc(Nc2ncc3c(=O)n(-c4c(Cl)cccc4Cl)c4nccn4c3n2)ccc1N1CCCN(C)CC1 [Example 74, 6-(2,6-dichlorophenyl)-2-{[3-methyl-4-(4-methyl-1,4-diazepan-1-yl)phenyl]amino}imidazo[1,2-a]pyrimido[5,4-e]pyrimidin-5(6H)-one] | < 10 nM |
| O=c1c2cnc(Nc3ccc(N4CCNCC4)c(C(F)(F)F)c3)nc2n2ccnc2n1-c1ccccc1Cl [Example 75, 6-(2-chlorophenyl)-2-{[4-(piperazin-1-yl)-3-(trifluoromethyl)phenyl]amino}imidazo[1,2-a]pyrimido[5,4-e]pyrimidin-5(6H)-one] | < 10 nM |
| O=c1c2cnc(Nc3ccc(OC[C@@H]4CCCN4)cc3)nc2n2ccnc2n1-c1ccccc1Cl [Example 76, 6-(2-chlorophenyl)-2-({4-[(2S)-pyrrolidin-2-ylmethoxy]phenyl}amino)imidazo[1,2-a]pyrimido[5,4-e]pyrimidin-5(6H)-one] | < 10 nM |
| O=c1c2cnc(Nc3ccc(Cn4ccnc4)cc3)nc2n2ccnc2n1-c1ccccc1Cl [Example 79, 6-(2-chlorophenyl)-2-{[4-(1H-imidazol-1-ylmethyl)phenyl]amino}imidazo[1,2-a]pyrimido[5,4-e]pyrimidin-5(6H)-one] | < 10 nM |
| O=c1c2cnc(Nc3ccc(N4CCNCC4)nc3)nc2n2ccnc2n1-c1ccccc1Cl [Example 81, 6-(2-chlorophenyl)-2-{[6-(piperazin-1-yl)pyridin-3-yl]amino}imidazo[1,2-a]pyrimido[5,4-e]pyrimidin-5(6H)-one] | < 10 nM |
| O=c1c2cnc(Nc3ccccc3)nc2n2ccnc2n1-c1c(Cl)cccc1Cl [Example 84, 6-(2,6-dichlorophenyl)-2-(phenylamino)imidazo[1,2-a]pyrimido[5,4-e]pyrimidin-5(6H)-one] | < 10 nM |
| COc1cc(Nc2ncc3c(=O)n(-c4ccccc4Cl)c4nccn4c3n2)ccc1OCCNC(C)C [Example 85, 6-(2-chlorophenyl)-2-({3-methoxy-4-[2-(propan-2-ylamino)ethoxy]phenyl}amino)imidazo[1,2-a]pyrimido[5,4-e]pyrimidin-5(6H)-one] | < 10 nM |
| CC(C)NCCOc1ccc(Nc2ncc3c(=O)n(-c4ccccc4Cl)c4nccn4c3n2)cc1Cl [Example 86, 6-(2-chlorophenyl)-2-({3-chloro-4-[2-(propan-2-ylamino)ethoxy]phenyl}amino)imidazo[1,2-a]pyrimido[5,4-e]pyrimidin-5(6H)-one] | < 10 nM |
| O=c1c2cnc(Nc3ccc(Cn4cccn4)cc3)nc2n2ccnc2n1-c1ccccc1Cl [Example 88, 6-(2-chlorophenyl)-2-{[4-(1H-pyrazol-1-ylmethyl)phenyl]amino}imidazo[1,2-a]pyrimido[5,4-e]pyrimidin-5(6H)-one] | < 10 nM |
| O=c1c2cnc(Nc3ccc4c(c3)CNCC43CC3)nc2n2ccnc2n1-c1ccccc1Cl [Example 90, 6-(2-chlorophenyl)-2-(2′,3′-dihydro-1′H-spiro[cyclopropane-1,4′-isoquinolin]-7′-ylamino)imidazo[1,2-a]pyrimido[5,4-e]pyrimidin-5(6H)-one] | < 10 nM |
| CC(=O)N1Cc2cc(Nc3ncc4c(=O)n(-c5ccccc5Cl)c5nccn5c4n3)ccc2C2(CC2)C1 [Example 91, 2-[(2′-acetyl-2′,3′-dihydro-1′H-spiro[cyclopropane-1,4′-isoquinolin]-7′-yl)amino]-6-(2-chlorophenyl)imidazo[1,2-a]pyrimido[5,4-e]pyrimidin-5(6H)-one] | < 10 nM |
| CN1CCCc2cc(Nc3ncc4c(=O)n(-c5ccccc5Cl)c5nccn5c4n3)ccc21 [Example 92, 6-(2-chlorophenyl)-2-[(1-methyl-1,2,3,4-tetrahydroquinolin-6-yl)amino]imidazo[1,2-a]pyrimido[5,4-e]pyrimidin-5(6H)-one] | < 10 nM |
| CN(C)CCN1CCc2cc(Nc3ncc4c(=O)n(-c5ccccc5Cl)c5nccn5c4n3)ccc21 [Example 93, 6-(2-chlorophenyl)-2-({1-[2-(dimethylamino)ethyl]-2,3-dihydro-1H-indol-5-yl}amino)imidazo[1,2-a]pyrimido[5,4-e]pyrimidin-5(6H)-one] | < 10 nM |
| CN(C)C1Cc2ccc(Nc3ncc4c(=O)n(-c5ccccc5Cl)c5nccn5c4n3)cc2C1 (centres unmarked) [Example 94, 6-(2-chlorophenyl)-2-{[2-(dimethylamino)-2,3-dihydro-1H-inden-5-yl]amino}imidazo[1,2-a]pyrimido[5,4-e]pyrimidin-5(6H)-one] | < 10 nM |
| Cc1cc(Nc2ncc3c(=O)n(-c4c(F)cccc4Cl)c4nccn4c3n2)ccc1N1CCCN(C)CC1 [Example 96, 6-(2-chloro-6-fluorophenyl)-2-{[3-methyl-4-(4-methyl-1,4-diazepan-1-yl)phenyl]amino}imidazo[1,2-a]pyrimido[5,4-e]pyrimidin-5(6H)-one] | < 10 nM |

The next lines start with the values.

| Ki | SMILES |
| --- | --- |
| < 10 nM | COCCN1CCN(c2ccc(Nc3ncc4c(=O)n(-c5ccccc5Cl)c5nccn5c4n3)cc2)CC1 [Example 64, 6-(2-chlorophenyl)-2-({4-[4-(2-methoxyethyl)piperazin-1-yl]phenyl}amino)imidazo[1,2-a]pyrimido[5,4-e]pyrimidin-5(6H)-one] |
| < 10 nM | COc1cc(Nc2ncc3c(=O)n(-c4ccccc4Cl)c4nccn4c3n2)ccc1N1CCN(C)CC1 [Example 65, 6-(2-chlorophenyl)-2-{[3-methoxy-4-(4-methylpiperazin-1-yl)phenyl]amino}imidazo[1,2-a]pyrimido[5,4-e]pyrimidin-5(6H)-one] |
| < 10 nM | COc1cc(Nc2ncc3c(=O)n(-c4ccccc4Cl)c4nccn4c3n2)ccc1N1CCN(C(C)C)CC1 [Example 66, 6-(2-chlorophenyl)-2-({3-methoxy-4-[4-(propan-2-yl)piperazin-1-yl]phenyl}amino)imidazo[1,2-a]pyrimido[5,4-e]pyrimidin-5(6H)-one] |
| < 10 nM | COc1cc(Nc2ncc3c(=O)n(-c4ccccc4Cl)c4nccn4c3n2)ccc1OCCN1CCN(C)CC1 [Example 67, 6-(2-chlorophenyl)-2-({3-methoxy-4-[2-(4-methylpiperazin-1-yl)ethoxy]phenyl}amino)imidazo[1,2-a]pyrimido[5,4-e]pyrimidin-5(6H)-one] |
| 10 to 100 nM | Cc1ccc(Nc2ncc3c(=O)n(-c4ccccc4Cl)c4nccn4c3n2)cc1 [Example 69, 6-(2-chlorophenyl)-2-[(4-methylphenyl)amino]imidazo[1,2-a]pyrimido[5,4-e]pyrimidin-5(6H)-one] |
| < 10 nM | O=c1c2cnc(Nc3ccc(C4CCCN4)cc3)nc2n2ccnc2n1-c1ccccc1Cl (centres unmarked) [Example 71, 6-(2-chlorophenyl)-2-{[4-(pyrrolidin-2-yl)phenyl]amino}imidazo[1,2-a]pyrimido[5,4-e]pyrimidin-5(6H)-one] |
| < 10 nM | O=c1c2cnc(Nc3ccc(C4CCNC4)cc3)nc2n2ccnc2n1-c1ccccc1Cl (centres unmarked) [Example 72, 6-(2-chlorophenyl)-2-{[4-(pyrrolidin-3-yl)phenyl]amino}imidazo[1,2-a]pyrimido[5,4-e]pyrimidin-5(6H)-one] |
| > 100 nM | Cc1cc(OCCCN2CCN(C)CC2)ccc1Nc1ncc2c(=O)n(-c3ccccc3Cl)c3nccn3c2n1 [Example 77, 6-(2-chlorophenyl)-2-({2-methyl-4-[3-(4-methylpiperazin-1-yl)propoxy]phenyl}amino)imidazo[1,2-a]pyrimido[5,4-e]pyrimidin-5(6H)-one] |
| < 10 nM | O=c1c2cnc(Nc3ccc(CN4CCOCC4)cc3)nc2n2ccnc2n1-c1ccccc1Cl [Example 78, 6-(2-chlorophenyl)-2-{[4-(morpholin-4-ylmethyl)phenyl]amino}imidazo[1,2-a]pyrimido[5,4-e]pyrimidin-5(6H)-one] |
| 10 to 100 nM | O=c1c2cnc(Nc3ccc(-n4ccnc4)cc3)nc2n2ccnc2n1-c1ccccc1Cl [Example 80, 6-(2-chlorophenyl)-2-{[4-(1H-imidazol-1-yl)phenyl]amino}imidazo[1,2-a]pyrimido[5,4-e]pyrimidin-5(6H)-one] |
| 10 to 100 nM | CN1CCN(CCCOc2cccc(Nc3ncc4c(=O)n(-c5ccccc5Cl)c5nccn5c4n3)c2)CC1 [Example 82, 6-(2-chlorophenyl)-2-({3-[3-(4-methylpiperazin-1-yl)propoxy]phenyl}amino)imidazo[1,2-a]pyrimido[5,4-e]pyrimidin-5(6H)-one] |
| 10 to 100 nM | O=c1c2cnc(Nc3cccc(OCCCN4CCCCC4)c3)nc2n2ccnc2n1-c1ccccc1Cl [Example 83, 6-(2-chlorophenyl)-2-({3-[3-(piperidin-1-yl)propoxy]phenyl}amino)imidazo[1,2-a]pyrimido[5,4-e]pyrimidin-5(6H)-one] |
| 10 to 100 nM | O=c1c2cnc(Nc3ccc(CO)cc3)nc2n2ccnc2n1-c1ccccc1Cl [Example 87, 6-(2-chlorophenyl)-2-{[4-(hydroxymethyl)phenyl]amino}imidazo[1,2-a]pyrimido[5,4-e]pyrimidin-5(6H)-one] |
| 10 to 100 nM | O=c1c2cnc(Nc3ccc(-n4cccn4)cc3)nc2n2ccnc2n1-c1ccccc1Cl [Example 89, 6-(2-chlorophenyl)-2-{[4-(1H-pyrazol-1-yl)phenyl]amino}imidazo[1,2-a]pyrimido[5,4-e]pyrimidin-5(6H)-one] |
